This note sets out measurements from patent US20210038607A1, “OXADIAZOLYLTHIOPHENE DERIVATIVES USEFUL AS HISTONE DEACETYLASE INHIBITORS” (Karus Therapeutics Limited, priority 2018, published 2021).

The term IC50 denotes the midpoint of a concentration-inhibition curve.

One assay addresses T1, Recombinant human HDAC6 (Homo sapiens, UniProt Q9UBN7).
T1 construct: full length, MW=159 kDa; GST (N); host or cells: Sf9 insect cells (baculovirus)
T1 sequence (Q9UBN7 1-1215): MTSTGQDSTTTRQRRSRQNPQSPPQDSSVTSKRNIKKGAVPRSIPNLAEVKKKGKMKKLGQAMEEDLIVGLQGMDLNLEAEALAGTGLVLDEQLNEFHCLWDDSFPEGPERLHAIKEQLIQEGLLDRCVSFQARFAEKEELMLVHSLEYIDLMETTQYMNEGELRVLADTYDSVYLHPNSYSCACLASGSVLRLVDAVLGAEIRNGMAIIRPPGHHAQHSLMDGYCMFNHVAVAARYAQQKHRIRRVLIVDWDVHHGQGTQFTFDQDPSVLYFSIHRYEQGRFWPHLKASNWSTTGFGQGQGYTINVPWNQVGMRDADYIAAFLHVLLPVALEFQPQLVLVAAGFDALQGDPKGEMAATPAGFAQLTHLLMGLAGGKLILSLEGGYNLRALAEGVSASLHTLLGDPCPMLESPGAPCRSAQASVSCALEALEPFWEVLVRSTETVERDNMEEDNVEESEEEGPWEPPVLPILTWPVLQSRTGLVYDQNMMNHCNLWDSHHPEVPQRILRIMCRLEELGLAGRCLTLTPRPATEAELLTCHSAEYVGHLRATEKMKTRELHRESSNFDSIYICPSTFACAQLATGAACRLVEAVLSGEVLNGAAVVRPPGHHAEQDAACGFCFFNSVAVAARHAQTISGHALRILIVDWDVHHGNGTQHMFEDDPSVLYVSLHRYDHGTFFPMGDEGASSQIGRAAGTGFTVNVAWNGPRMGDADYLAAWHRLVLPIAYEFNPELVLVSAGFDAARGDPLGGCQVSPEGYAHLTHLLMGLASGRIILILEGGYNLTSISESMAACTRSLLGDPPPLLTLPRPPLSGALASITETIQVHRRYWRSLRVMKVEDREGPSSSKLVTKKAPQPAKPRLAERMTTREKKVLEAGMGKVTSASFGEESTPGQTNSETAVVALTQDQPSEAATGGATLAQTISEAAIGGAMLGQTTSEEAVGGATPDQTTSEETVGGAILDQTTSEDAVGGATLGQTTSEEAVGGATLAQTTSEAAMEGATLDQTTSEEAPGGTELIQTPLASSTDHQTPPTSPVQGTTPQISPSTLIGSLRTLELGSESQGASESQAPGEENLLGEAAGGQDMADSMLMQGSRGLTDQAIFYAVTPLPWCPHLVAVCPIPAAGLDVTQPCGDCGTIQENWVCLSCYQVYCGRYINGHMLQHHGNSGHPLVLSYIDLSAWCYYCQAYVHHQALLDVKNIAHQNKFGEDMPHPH
Briefly: HDAC6 biochemical assay, AMC-labeled peptide substrate. Particulars: HDAC6; read-out: HDAC Isoform IC50 (nM) 6. A digest of the protocol: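 Two-step fluorogenic read-out: enzyme deacetylates 50 μM RHKK(Ac)AMC for 1 h at 30° C in pH 8.0 Tris buffer with BSA and 1% DMSO, then developer cleavage gives signal at Ex 360/Em 460. Enzyme: 0.3 ng/ul recombinant full-length human HDAC6, GST-tagged, Sf9-expressed.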

A further assay has as its target T2, Human HDAC5 (Homo sapiens, UniProt Q9UQL6).
T2 construct: full length with C-terminal His tag, MW=51.1 kDa; His (C); host or cells: baculovirus expression system
Description: HDAC5 biochemical assay, class IIa-specific substrate. Particulars: read-out: HDAC Isoform IC50 (nM) 5. A digest of the protocol:
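Two-step fluorogenic read-out: deacetylated trifluoroacetyl-lysine AMC substrate (50 μM) digested by developer, measured at Ex/Em 360/460. Deacetylation step: 0.05 ng/ul His-tagged full-length baculoviral enzyme with compound, 30 min, room temperature, pH 8.0 Tris with 1 mg/mL BSA and 1% DMSO.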

In another assay the target is T3, Human HDAC1 (Homo sapiens, UniProt Q13547).
T3 construct: full length with C-terminal His-tag and C-terminal FLAG-tag; His (C); FLAG (C); host or cells: baculovirus expression system
T3 sequence (Q13547 whole entry): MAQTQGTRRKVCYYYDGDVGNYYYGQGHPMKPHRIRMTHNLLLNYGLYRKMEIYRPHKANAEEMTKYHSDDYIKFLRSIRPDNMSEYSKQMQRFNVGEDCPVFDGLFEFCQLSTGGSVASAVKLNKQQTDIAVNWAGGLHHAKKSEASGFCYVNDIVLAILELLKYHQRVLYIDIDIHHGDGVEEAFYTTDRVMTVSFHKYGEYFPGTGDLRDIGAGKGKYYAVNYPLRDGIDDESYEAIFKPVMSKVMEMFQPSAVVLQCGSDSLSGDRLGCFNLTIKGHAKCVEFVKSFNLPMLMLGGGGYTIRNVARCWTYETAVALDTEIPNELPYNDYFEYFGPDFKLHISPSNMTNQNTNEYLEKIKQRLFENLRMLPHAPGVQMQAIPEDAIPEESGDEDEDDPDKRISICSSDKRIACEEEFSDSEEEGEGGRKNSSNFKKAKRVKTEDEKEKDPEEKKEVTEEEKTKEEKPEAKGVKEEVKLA
Briefly: HDAC1 biochemical assay, AMC-labeled peptide substrate. Particulars: read-out: HDAC Isoform IC50 (nM) 1. A digest of the protocol: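 Two-step fluorogenic read: HDAC1 deacetylates 50 μM acetyl-lysine AMC peptide RHKK(Ac)AMC for 1 h at 30° C (pH 8.0, 1% DMSO, with compound), then developer digests the product for fluorescence at Ex/Em 360/460. Enzyme is full-length human, His/FLAG-tagged, insect-cell expressed, at 0.3 ng/ul.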

The target of a further assay is T4, Human HDAC4 (Homo sapiens, UniProt P56524).
T4 construct: amino acids 627-1085 with N-terminal GST tag; GST (N); host or cells: baculovirus expression system
T4 sequence (P56524 627-1084 limits assumed): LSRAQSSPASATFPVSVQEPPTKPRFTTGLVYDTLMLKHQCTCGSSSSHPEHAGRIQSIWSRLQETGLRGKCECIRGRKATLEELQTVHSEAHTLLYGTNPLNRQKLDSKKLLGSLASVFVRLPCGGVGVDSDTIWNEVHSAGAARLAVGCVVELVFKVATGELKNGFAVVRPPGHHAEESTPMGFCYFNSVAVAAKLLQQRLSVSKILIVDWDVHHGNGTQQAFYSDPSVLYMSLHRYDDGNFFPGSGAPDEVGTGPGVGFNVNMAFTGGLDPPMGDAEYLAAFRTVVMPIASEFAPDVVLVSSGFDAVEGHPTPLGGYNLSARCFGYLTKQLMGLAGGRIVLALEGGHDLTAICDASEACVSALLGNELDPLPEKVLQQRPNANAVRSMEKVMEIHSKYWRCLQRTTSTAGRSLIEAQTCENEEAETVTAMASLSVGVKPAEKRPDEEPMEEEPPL
Briefly: HDAC4 biochemical assay, class IIa-specific substrate. To be noted: read-out: HDAC Isoform IC50 (nM) 4. In short, it runs like this: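 Two-step fluorogenic read-out: deacetylated BOC-Lys(trifluoroacetyl)-AMC (50 μM) was digested by developer and measured at Ex/Em 360/460. Deacetylation by 0.004 ng/ul HDAC4 (aa 627-1085, N-terminal GST) ran 30 min at room temperature, pH 8.0 Tris buffer, 1 mg/mL BSA, 1% DMSO.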

Another assay concerns the target T5, Human HDAC7 (Homo sapiens, UniProt Q8WUI4).
T5 construct: (a.a. 518-end) with N-terminal GST tag; GST (N); host or cells: baculovirus expression system
T5 sequence (Q8WUI4 518-952 limits assumed): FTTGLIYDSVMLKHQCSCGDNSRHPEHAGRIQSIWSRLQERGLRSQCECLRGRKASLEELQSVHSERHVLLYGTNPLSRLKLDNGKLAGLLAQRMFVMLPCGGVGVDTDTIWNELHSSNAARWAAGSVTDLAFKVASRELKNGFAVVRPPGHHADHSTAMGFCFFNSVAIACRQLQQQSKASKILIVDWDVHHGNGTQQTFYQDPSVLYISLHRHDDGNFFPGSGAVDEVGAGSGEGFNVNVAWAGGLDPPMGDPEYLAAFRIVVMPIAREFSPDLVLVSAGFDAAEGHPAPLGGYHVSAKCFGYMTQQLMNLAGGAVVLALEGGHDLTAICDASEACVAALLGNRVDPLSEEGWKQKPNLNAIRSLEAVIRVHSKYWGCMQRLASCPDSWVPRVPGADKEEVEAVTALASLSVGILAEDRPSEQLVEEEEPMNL
Description: HDAC7 biochemical assay, class IIa-specific substrate. Particulars: read-out: HDAC Isoform IC50 (nM) 7. In short, it runs like this: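 Two-step fluorogenic readout: class IIa-selective trifluoroacetyl-lysine AMC substrate (50 μM) deacetylated by N-terminal GST-HDAC7 fragment (0.001 ng/ul), then digested by developer, Ex/Em 360/460. Reaction: 30 min, room temperature, Tris-HCl pH 8.0, NaCl/KCl/MgCl2, 1 mg/mL BSA, 1% DMSO.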

For a further assay, the target named is T6, Human HDAC9 (Homo sapiens, UniProt Q9UKV0).
T6 construct: amino acids 604-1066 with C-terminal His tag; His (C); host or cells: baculovirus expression system
T6 sequence (Q9UKV0 604-1066 isoform Q9UKV0-5): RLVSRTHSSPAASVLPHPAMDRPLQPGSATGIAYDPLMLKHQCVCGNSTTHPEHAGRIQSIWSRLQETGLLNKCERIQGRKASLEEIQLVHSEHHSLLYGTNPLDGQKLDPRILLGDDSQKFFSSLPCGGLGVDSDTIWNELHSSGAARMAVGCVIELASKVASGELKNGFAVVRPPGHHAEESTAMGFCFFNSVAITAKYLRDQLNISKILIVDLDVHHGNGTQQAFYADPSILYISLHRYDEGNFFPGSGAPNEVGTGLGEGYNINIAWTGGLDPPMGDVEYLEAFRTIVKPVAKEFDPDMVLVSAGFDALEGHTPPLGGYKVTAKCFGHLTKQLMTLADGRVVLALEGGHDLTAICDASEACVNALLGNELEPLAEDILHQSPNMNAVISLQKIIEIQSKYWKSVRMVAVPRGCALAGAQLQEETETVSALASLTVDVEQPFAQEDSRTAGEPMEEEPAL
Description: HDAC9 biochemical assay, class IIa-specific substrate. To be noted: read-out: HDAC Isoform IC50 (nM) 9. A digest of the protocol:
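HDAC9 residues 604-1066 (C-terminal His tag, baculovirus-expressed) at 0.06 ng/ul with 50 μM class IIa substrate Boc-Lys(trifluoroacetyl)-AMC in Tris-HCl pH 8.0 buffer with BSA and 1% DMSO. 30 min at room temperature, then developer added; fluorescence read at 360/460 nm Ex/Em.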

Bounds are passed on as bounds.

T2 sequence (Q9UQL6 656-1122 limits assumed): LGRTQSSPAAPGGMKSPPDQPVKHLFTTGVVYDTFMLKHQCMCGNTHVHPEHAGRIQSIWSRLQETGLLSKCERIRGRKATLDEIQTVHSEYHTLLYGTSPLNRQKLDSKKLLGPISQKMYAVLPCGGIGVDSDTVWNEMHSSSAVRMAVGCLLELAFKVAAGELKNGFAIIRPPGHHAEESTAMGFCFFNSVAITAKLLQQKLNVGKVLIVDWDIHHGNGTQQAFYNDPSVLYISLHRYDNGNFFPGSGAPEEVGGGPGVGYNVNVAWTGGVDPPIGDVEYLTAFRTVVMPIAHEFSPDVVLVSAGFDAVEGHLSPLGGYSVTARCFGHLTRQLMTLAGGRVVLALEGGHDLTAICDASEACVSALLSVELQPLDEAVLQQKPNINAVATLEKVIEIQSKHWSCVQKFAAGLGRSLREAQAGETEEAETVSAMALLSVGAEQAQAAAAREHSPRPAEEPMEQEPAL

Consider `CN(C)c1cc(N(Cc2ccc(-c3noc(C(F)(F)F)n3)s2)c2cnccn2)ncn1` [Example CI, N4,N4-Dimethyl-N6-(pyrazin-2-yl)-N6-({5-[5-(trifluoromethyl)-1,2,4-oxadiazol-3-yl]thiophen-2-yl}methyl)pyrimidine-4,6-diamine], for which the IC50 on Recombinant human HDAC6, on Human HDAC5, at Human HDAC1, on Human HDAC4, at Human HDAC7 and on Human HDAC9 was not above 10000 nM each time.
For the molecule `FC(F)(F)c1cc(N(Cc2ccc(-c3noc(C(F)(F)F)n3)s2)c2cnccn2)ncn1` [Example CJ, N-(Pyrazin-2-yl)-6-(trifluoromethyl)-N-({5-[5-(trifluoromethyl)-1,2,4-oxadiazol-3-yl]thiophen-2-yl}methyl)pyrimidin-4-amine], the IC50 was not above 10000 nM on Recombinant human HDAC6; not above 10000 nM on Human HDAC5; more than 10000 nM at Human HDAC1; not above 10000 nM at Human HDAC4; not above 10000 nM on Human HDAC7; not above 10000 nM on Human HDAC9.
As to `CS(=O)(=O)c1cc(N(Cc2ccc(-c3noc(C(F)(F)F)n3)s2)c2cnccn2)ncn1` [Example CK, 6-Methanesulfonyl-N-(pyrazin-2-yl)-N-({5-[5-(trifluoromethyl)-1,2,4-oxadiazol-3-yl]thiophen-2-yl}methyl)pyrimidin-4-amine], the concentration for half-maximal inhibition (IC50) is not above 10000 nM on Recombinant human HDAC6; not above 10000 nM at Human HDAC5; more than 10000 nM at Human HDAC1; not above 1000 nM on Human HDAC4; not above 10000 nM at Human HDAC7; not above 10000 nM on Human HDAC9.
Turning to `FC(F)(F)c1nc(-c2ccc(CN(c3cnccn3)c3cc(N4CCOCC4)ncn3)s2)no1` [Example CL, 6-(Morpholin-4-yl)-N-(pyrazin-2-yl)-N-({5-[5-(trifluoromethyl)-1,2,4-oxadiazol-3-yl]thiophen-2-yl}methyl)pyrimidin-4-amine], the IC50 at Recombinant human HDAC6 was not above 10000 nM; on Human HDAC5 it was not above 10000 nM; at Human HDAC1, more than 10000 nM; on Human HDAC4, not above 10000 nM; on Human HDAC7 it was not above 10000 nM; on Human HDAC9, not above 10000 nM.
As to `Cn1ccc2c(N(Cc3ccc(-c4noc(C(F)(F)F)n4)s3)c3cnccn3)ncnc21` [Example CM, N-{7-Methyl-7H-pyrrolo[2,3-d]pyrimidin-4-yl}-N-({5-[5-(trifluoromethyl)-1,2,4-oxadiazol-3-yl]thiophen-2-yl}methyl)pyrazin-2-amine], the IC50 at Recombinant human HDAC6 is not above 10000 nM; at Human HDAC5 it was not above 10000 nM; on Human HDAC1, more than 10000 nM; at Human HDAC4 it was not above 10000 nM; on Human HDAC7 it was not above 10000 nM; on Human HDAC9, not above 10000 nM.
Turning to `COc1ccc2ncnc(N(Cc3ccc(-c4noc(C(F)(F)F)n4)s3)c3cnccn3)c2c1` [Example CN, 6-Methoxy-N-(pyrazin-2-yl)-N-({5-[5-(trifluoromethyl)-1,2,4-oxadiazol-3-yl]thiophen-2-yl}methyl)quinazolin-4-amine], the concentration for half-maximal inhibition (IC50) at Recombinant human HDAC6 is not above 1000 nM; on Human HDAC5, not above 1000 nM; on Human HDAC1 it was more than 10000 nM; on Human HDAC4 it was not above 10000 nM; on Human HDAC7, not above 10000 nM; at Human HDAC9 it was not above 10000 nM.
Take `Cc1cncnc1N(Cc1ccc(-c2noc(C(F)(F)F)n2)s1)c1cnccn1` [Example CO, 5-Methyl-N-(pyrazin-2-yl)-N-({5-[5-(trifluoromethyl)-1,2,4-oxadiazol-3-yl]thiophen-2-yl}methyl)pyrimidin-4-amine]: the IC50 at Recombinant human HDAC6 is not above 1000 nM; at Human HDAC5 it was not above 1000 nM; on Human HDAC1, more than 10000 nM; at Human HDAC4, not above 500 nM; at Human HDAC7, not above 1000 nM; at Human HDAC9, not above 10000 nM.
`COc1cncnc1N(Cc1ccc(-c2noc(C(F)(F)F)n2)s1)c1cnccn1` [Example CP, 5-Methoxy-N-(pyrazin-2-yl)-N-({5-[5-(trifluoromethyl)-1,2,4-oxadiazol-3-yl]thiophen-2-yl}methyl)pyrimidin-4-amine]: the IC50 on Recombinant human HDAC6 is not above 1000 nM; on Human HDAC5, not above 10000 nM; on Human HDAC1 it was more than 10000 nM; at Human HDAC4, not above 10000 nM; at Human HDAC7, not above 10000 nM; at Human HDAC9, not above 10000 nM.
Turning to `Cc1nc(N2CCCC2)cc(N(Cc2ccc(-c3noc(C(F)(F)F)n3)s2)c2cnccn2)n1` [Example CQ, 2-Methyl-N-(pyrazin-2-yl)-6-(pyrrolidin-1-yl)-N-({5-[5-(trifluoromethyl)-1,2,4-oxadiazol-3-yl]thiophen-2-yl}methyl)pyrimidin-4-amine], the 50% inhibitory concentration (IC50) was not above 10000 nM on Recombinant human HDAC6; not above 10000 nM on Human HDAC5; more than 10000 nM on Human HDAC1; not above 10000 nM on Human HDAC4; not above 10000 nM on Human HDAC7; not above 10000 nM on Human HDAC9.
As to `Cc1ncc(N(Cc2ccc(-c3noc(C(F)(F)F)n3)s2)c2cnccn2)cn1` [Example CS, 2-Methyl-N-(pyrazin-2-yl)-N-({5-[5-(trifluoromethyl)-1,2,4-oxadiazol-3-yl]thiophen-2-yl}methyl)pyrimidin-5-amine], the IC50 at Recombinant human HDAC6 is not above 1000 nM; at Human HDAC5, not above 1000 nM; at Human HDAC1, not above 10000 nM; at Human HDAC4, not above 500 nM; at Human HDAC7, not above 500 nM; at Human HDAC9 it was not above 10000 nM.
